Source: patent US20090311217A1, “3-SUBSTITUTED-1H-INDOLE COMPOUNDS, THEIR USE AS MTOR KINASE AND PI3 KINASE INHIBITORS, AND THEIR SYNTHESES” (priority 2008, published 2009)
Read-outs that look alike come from different tables or passages of the source.

Columns and labels:
Type in all cases: biochemical
PI3K-alpha = PI3K-alpha (Homo sapiens, UniProt P42336); assay: PI3K-alpha fluorescence polarization assay
PI3K-gamma = PI3K-gamma (Homo sapiens, UniProt P48736); assay: PI3K-gamma fluorescence polarization assay; conditions: PI3Kγ Avg. IC50
Sequence of PI3K-gamma (P48736 whole entry, species assumed, the tested form may be a part): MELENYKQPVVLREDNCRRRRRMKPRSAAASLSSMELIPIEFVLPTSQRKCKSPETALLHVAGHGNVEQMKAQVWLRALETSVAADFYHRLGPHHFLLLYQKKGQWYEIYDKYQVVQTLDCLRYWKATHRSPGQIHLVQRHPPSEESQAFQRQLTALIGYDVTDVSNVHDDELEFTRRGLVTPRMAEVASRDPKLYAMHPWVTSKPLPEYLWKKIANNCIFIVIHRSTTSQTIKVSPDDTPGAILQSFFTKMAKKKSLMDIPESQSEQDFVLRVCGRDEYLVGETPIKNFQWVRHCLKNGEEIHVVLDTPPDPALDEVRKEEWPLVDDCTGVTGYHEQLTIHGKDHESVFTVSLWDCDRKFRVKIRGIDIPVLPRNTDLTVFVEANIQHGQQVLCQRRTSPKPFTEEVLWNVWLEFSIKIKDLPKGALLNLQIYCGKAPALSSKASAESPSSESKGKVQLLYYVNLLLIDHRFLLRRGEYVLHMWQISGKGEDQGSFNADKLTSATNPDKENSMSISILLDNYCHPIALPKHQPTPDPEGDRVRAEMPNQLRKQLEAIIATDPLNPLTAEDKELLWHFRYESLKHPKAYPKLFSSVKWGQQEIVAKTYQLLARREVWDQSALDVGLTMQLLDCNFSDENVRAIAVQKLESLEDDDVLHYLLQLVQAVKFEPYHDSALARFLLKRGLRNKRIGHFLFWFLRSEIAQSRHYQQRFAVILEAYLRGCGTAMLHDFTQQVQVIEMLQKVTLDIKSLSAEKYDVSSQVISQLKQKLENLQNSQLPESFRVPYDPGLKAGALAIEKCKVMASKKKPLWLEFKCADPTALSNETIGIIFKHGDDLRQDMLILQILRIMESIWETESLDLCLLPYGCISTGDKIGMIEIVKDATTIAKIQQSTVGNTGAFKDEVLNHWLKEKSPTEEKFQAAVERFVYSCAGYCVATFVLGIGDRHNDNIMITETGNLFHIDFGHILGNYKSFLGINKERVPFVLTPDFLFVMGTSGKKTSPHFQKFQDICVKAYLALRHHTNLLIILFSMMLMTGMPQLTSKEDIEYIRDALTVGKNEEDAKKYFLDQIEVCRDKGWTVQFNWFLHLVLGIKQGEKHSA
How it was run: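 Reactions in 5 mM HEPES pH 7, 2.5 mM MgCl2, 25 μM ATP with 2.5 μM diC8-PI(4,5)P2 and 5 ng enzyme, 1 h at 25° C, then EDTA quench. Product detected by FP using GST-GRP1 PH domain (100 nM) and BODIPY-TMR-IP4 tracer (5 nM); final DMSO 0.8%.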

human TOR = molecular target: T1, human TOR (Homo sapiens, UniProt P42345); assay: mTOR enzyme assay (DELFIA, His6-S6K substrate); conditions: read-out: mTOR Kinase Avg. IC50
T1 construct: FLAG

Sequence of PI3K-alpha (P42336 whole entry, species assumed): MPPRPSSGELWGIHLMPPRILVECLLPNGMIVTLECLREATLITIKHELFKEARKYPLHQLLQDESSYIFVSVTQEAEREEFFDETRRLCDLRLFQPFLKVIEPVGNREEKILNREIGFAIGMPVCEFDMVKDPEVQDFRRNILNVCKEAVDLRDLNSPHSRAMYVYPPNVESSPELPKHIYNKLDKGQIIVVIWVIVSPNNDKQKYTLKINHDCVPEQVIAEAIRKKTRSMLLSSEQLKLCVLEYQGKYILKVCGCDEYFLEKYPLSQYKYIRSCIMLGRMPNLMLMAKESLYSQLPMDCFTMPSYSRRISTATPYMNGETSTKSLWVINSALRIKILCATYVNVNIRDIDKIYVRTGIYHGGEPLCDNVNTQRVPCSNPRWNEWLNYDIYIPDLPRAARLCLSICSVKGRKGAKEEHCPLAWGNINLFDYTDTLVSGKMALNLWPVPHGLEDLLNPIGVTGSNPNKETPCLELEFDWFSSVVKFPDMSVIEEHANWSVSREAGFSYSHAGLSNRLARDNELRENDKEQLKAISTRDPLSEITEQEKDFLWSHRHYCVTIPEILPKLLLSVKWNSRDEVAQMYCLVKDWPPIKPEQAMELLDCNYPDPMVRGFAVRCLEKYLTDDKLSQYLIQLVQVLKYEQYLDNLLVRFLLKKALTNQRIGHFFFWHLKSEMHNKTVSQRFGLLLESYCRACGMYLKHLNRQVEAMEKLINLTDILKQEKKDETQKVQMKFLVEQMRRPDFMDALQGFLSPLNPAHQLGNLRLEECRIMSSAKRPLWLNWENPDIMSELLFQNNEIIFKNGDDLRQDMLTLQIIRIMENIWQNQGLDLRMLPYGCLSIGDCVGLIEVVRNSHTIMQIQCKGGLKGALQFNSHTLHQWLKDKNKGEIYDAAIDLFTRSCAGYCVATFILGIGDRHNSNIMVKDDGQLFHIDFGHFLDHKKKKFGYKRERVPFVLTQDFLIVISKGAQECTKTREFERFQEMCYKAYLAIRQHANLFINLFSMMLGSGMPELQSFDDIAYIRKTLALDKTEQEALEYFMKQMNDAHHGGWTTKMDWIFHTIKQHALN
Sequence of PI3K-alpha (P27986 whole entry partner, species assumed): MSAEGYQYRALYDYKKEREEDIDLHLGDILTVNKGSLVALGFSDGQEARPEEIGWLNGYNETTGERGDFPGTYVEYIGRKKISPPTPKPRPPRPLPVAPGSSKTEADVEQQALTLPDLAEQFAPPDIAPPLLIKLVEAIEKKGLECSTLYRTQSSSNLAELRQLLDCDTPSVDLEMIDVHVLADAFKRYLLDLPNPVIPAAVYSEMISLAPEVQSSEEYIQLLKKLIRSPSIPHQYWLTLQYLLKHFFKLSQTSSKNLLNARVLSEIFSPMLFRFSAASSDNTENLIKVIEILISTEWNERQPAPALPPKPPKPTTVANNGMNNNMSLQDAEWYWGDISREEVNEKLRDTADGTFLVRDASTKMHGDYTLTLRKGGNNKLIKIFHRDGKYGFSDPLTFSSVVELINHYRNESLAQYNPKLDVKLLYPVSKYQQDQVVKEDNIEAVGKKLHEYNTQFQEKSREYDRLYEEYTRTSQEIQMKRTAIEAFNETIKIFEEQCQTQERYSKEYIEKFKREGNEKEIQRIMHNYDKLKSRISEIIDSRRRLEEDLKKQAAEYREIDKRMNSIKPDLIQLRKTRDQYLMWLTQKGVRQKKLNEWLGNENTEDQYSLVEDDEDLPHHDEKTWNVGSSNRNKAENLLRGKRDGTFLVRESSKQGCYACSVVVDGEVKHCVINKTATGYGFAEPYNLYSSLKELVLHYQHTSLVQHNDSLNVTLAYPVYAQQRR

| IC50 (PI3K-alpha; read-out: PI3Kα Avg. IC50) [nM] | IC50 (PI3K-gamma) [nM] | IC50 (human TOR) [nM] | SMILES | IC50 (PI3K-alpha; PI3Kα Avg. IC50) [nM] |
| --- | --- | --- | --- | --- |
| 0.8 | 3.65 | 23 | COc1cc(F)c2[nH]c(-c3c(C)nn(C)c3C)c(/C=C3\Oc4ccc(NC(=O)NCCN(C)C)cc4C3=O)c2c1 [Compound 716, 1-[2-(dimethylamino)ethyl]-3-[(2Z)-2-{[7-fluoro-5-methoxy-2-(1,3,5-trimethyl-1H-pyrazol-4-yl)-1H-indol-3-yl]methylidene}-3-oxo-2,3-dihydro-1-benzofuran-5-yl]urea] | – |
| 2.65 | 8 | 7 | CNC(=O)Nc1ccc2c(c1)C(=O)/C(=C/c1c(-c3cnn(CC(C)C)c3)[nH]c3c(F)cc(OC)cc13)O2 [Compound 717, 1-[(2Z)-2-({7-fluoro-5-methoxy-2-[1-(2-methylpropyl)-1H-pyrazol-4-yl]-1H-indol-3-yl}methylidene)-3-oxo-2,3-dihydro-1-benzofuran-5-yl]-3-methylurea] | – |
| 2.75 | 9.5 | 2 | CNC(=O)Nc1ccc2c(c1)C(=O)/C(=C/c1c(-c3cnn(C)c3)[nH]c3c(F)cc(OC)cc13)O2 [Compound 718, 1-[(2Z)-2-{[7-fluoro-5-methoxy-2-(1-methyl-1H-pyrazol-4-yl)-1H-indol-3-yl]methylidene}-3-oxo-2,3-dihydro-1-benzofuran-5-yl]-3-methylurea] | – |
| 3.1 | 41.5 | 275 | CCn1c(C)c(/C=C2\Oc3ccc(NC(=O)Nc4ccc(CN(C)C)cc4)cc3C2=O)c2cc(OC)ccc21 [Compound 719, 1-{4-[(dimethylamino)methyl]phenyl}-3-{(2Z)-2-[(1-ethyl-5-methoxy-2-methyl-1H-indol-3-yl)methylidene]-3-oxo-2,3-dihydro-1-benzofuran-5-yl}urea] | – |
| 0.4 | 1.75 | 2 | COc1ccc2[nH]c(-c3c(C)nn(C)c3C)c(/C=C3\Oc4ccc(NC(=O)Nc5ccc(C(=O)N6CCS(=O)(=O)CC6)cc5)cc4C3=O)c2c1 [Compound 720, 1-{4-[(1,1-dioxidothiomorpholin-4-yl)carbonyl]phenyl}-3-[(2Z)-2-{[5-methoxy-2-(1,3,5-trimethyl-1H-pyrazol-4-yl)-1H-indol-3-yl]methylidene}-3-oxo-2,3-dihydro-1-benzofuran-5-yl]urea] | – |
| 0.6 | 2.25 | 1 | COc1cc(F)c2[nH]c(-c3c(C)nn(C)c3C)c(/C=C3\Oc4ccc(NC(=O)Nc5ccc(C(=O)N6CCN(CCO)CC6)cc5)cc4C3=O)c2c1 [Compound 721, 1-[(2Z)-2-{[7-fluoro-5-methoxy-2-(1,3,5-trimethyl-1H-pyrazol-4-yl)-1H-indol-3-yl]methylidene}-3-oxo-2,3-dihydro-1-benzofuran-5-yl]-3-(4-{[4-(2-hydroxyethyl)piperazin-1-yl]carbonyl}phenyl)urea] | – |
| 1.25 | 5 | 2 | CNC(=O)Nc1ccc2c(c1)C(=O)/C(=C/c1c(-c3cn(C)nc3C)[nH]c3ccc(OC)cc13)O2 [Compound 722, 1-[(2Z)-2-{[2-(1,3-dimethyl-1H-pyrazol-4-yl)-5-methoxy-1H-indol-3-yl]methylidene}-3-oxo-2,3-dihydro-1-benzofuran-5-yl]-3-methylurea] | – |
| 1 | 4.1 | 3 | CNC(=O)Nc1ccc2c(c1)C(=O)/C(=C/c1c(-c3cnn(C)c3C)[nH]c3ccc(OC)cc13)O2 [Compound 723, 1-[(2Z)-2-{[2-(1,5-dimethyl-1H-pyrazol-4-yl)-5-methoxy-1H-indol-3-yl]methylidene}-3-oxo-2,3-dihydro-1-benzofuran-5-yl]-3-methylurea] | – |
| 4.7 | 30.7 | 20 | CNC(=O)Nc1ccc2c(c1)C(=O)/C(=C/c1c(-c3nn(C)cc3C(F)(F)F)[nH]c3ccc(OC)cc13)O2 [Compound 724, 1-[(2Z)-2-({5-methoxy-2-[1-methyl-4-(trifluoromethyl)-1H-pyrazol-3-yl]-1H-indol-3-yl}methylidene)-3-oxo-2,3-dihydro-1-benzofuran-5-yl]-3-methylurea] | – |
| 13 | 74 | 530 | CNC(=O)Nc1ccc2c(c1)C(=O)/C(=C/c1c(-c3c(C)nn(C)c3C)[nH]c3c(C(F)(F)F)cc(OC)cc13)O2 [Compound 725, 1-[(2Z)-2-{[5-methoxy-7-(trifluoromethyl)-2-(1,3,5-trimethyl-1H-pyrazol-4-yl)-1H-indol-3-yl]methylidene}-3-oxo-2,3-dihydro-1-benzofuran-5-yl]-3-methylurea] | – |
| 1.37 | 13.7 | 18 | CNC(=O)Nc1ccc2c(c1)C(=O)/C(=C/c1c(-c3c(C)nn(C)c3C)[nH]c3c(C)cc(OC)cc13)O2 [Compound 726, 1-[(2Z)-2-{[5-methoxy-7-methyl-2-(1,3,5-trimethyl-1H-pyrazol-4-yl)-1H-indol-3-yl]methylidene}-3-oxo-2,3-dihydro-1-benzofuran-5-yl]-3-methylurea] | – |
| 1.45 | 6.25 | 48 | COc1cc(F)c2[nH]c(-c3c(C)nn(C)c3C)c(/C=C3\Oc4ccc(NC(=O)NCCN5CCCC5)cc4C3=O)c2c1 [Compound 727, 1-[(2Z)-2-{[7-fluoro-5-methoxy-2-(1,3,5-trimethyl-1H-pyrazol-4-yl)-1H-indol-3-yl]methylidene}-3-oxo-2,3-dihydro-1-benzofuran-5-yl]-3-(2-pyrrolidin-1-ylethyl)urea] | – |
| 0.95 | 3.55 | 7 | CNCCNC(=O)Nc1ccc2c(c1)C(=O)/C(=C/c1c(-c3c(C)nn(C)c3C)[nH]c3c(F)cc(OC)cc13)O2 [Compound 728, 1-[(2Z)-2-{[7-fluoro-5-methoxy-2-(1,3,5-trimethyl-1H-pyrazol-4-yl)-1H-indol-3-yl]methylidene}-3-oxo-2,3-dihydro-1-benzofuran-5-yl]-3-[2-(methylamino)ethyl]urea] | – |
| 0.35 | 2.9 | 1 | COc1cc(F)c2[nH]c(-c3c(C)nn(C)c3C)c(/C=C3\Oc4ccc(NC(=O)Nc5ccc(C(=O)N6CCC(N(C)C)CC6)cc5)cc4C3=O)c2c1 [Compound 729, 1-(4-{[4-(dimethylamino)piperidin-1-yl]carbonyl}phenyl)-3-[(2Z)-2-{[7-fluoro-5-methoxy-2-(1,3,5-trimethyl-1H-pyrazol-4-yl)-1H-indol-3-yl]methylidene}-3-oxo-2,3-dihydro-1-benzofuran-5-yl]urea] | – |
| 0.65 | 1.9 | 3 | COc1cc(F)c2[nH]c(-c3c(C)nn(C)c3C)c(/C=C3\Oc4ccc(NC(=O)Nc5ccc(C(=O)N6CCN(C)C(C)C6)cc5)cc4C3=O)c2c1 (stereo not drawn) [Compound 730, 1-{4-[(3,4-dimethylpiperazin-1-yl)carbonyl]phenyl}-3-[(2Z)-2-{[7-fluoro-5-methoxy-2-(1,3,5-trimethyl-1H-pyrazol-4-yl)-1H-indol-3-yl]methylidene}-3-oxo-2,3-dihydro-1-benzofuran-5-yl]urea] | – |
| 0.55 | 1.5 | 3 | COc1cc(F)c2[nH]c(-c3c(C)nn(C)c3C)c(/C=C3\Oc4ccc(NC(=O)Nc5ccc(C(=O)N6CCOCC6)cc5)cc4C3=O)c2c1 [Compound 731, 1-[(2Z)-2-{[7-fluoro-5-methoxy-2-(1,3,5-trimethyl-1H-pyrazol-4-yl)-1H-indol-3-yl]methylidene}-3-oxo-2,3-dihydro-1-benzofuran-5-yl]-3-[4-(morpholin-4-ylcarbonyl)phenyl]urea] | – |
| 0.33 | 1.9 | 1 | COc1cc(F)c2[nH]c(-c3c(C)nn(C)c3C)c(/C=C3\Oc4ccc(NC(=O)Nc5ccc(C(=O)N6CCC(N(C)C)C6)cc5)cc4C3=O)c2c1 (stereo not drawn) [Compound 732, 1-(4-{[3-(dimethylamino)pyrrolidin-1-yl]carbonyl}phenyl)-3-[(2Z)-2-{[7-fluoro-5-methoxy-2-(1,3,5-trimethyl-1H-pyrazol-4-yl)-1H-indol-3-yl]methylidene}-3-oxo-2,3-dihydro-1-benzofuran-5-yl]urea] | – |
| 0.3 | 3 | < 1 | COc1cc(F)c2[nH]c(-c3c(C)nn(C)c3C)c(/C=C3\Oc4ccc(NC(=O)Nc5ccc(C(=O)NCCN(C)C)cc5)cc4C3=O)c2c1 [Compound 733, N-[2-(dimethylamino)ethyl]-4-({[(2Z)-2-{[7-fluoro-5-methoxy-2-(1,3,5-trimethyl-1H-pyrazol-4-yl)-1H-indol-3-yl]methylidene}-3-oxo-2,3-dihydro-1-benzofuran-5-yl]carbamoyl}amino)benzamide] | – |
| 310 | 3530 | 15000 | O=C1/C(=C/c2c[nH]c3ccc(Br)cc23)Oc2c1ccc(O)c2O [Example 58, (2Z)-2-[(5-bromo-1H-indol-3-yl)methylene]-6,7-dihydroxy-1-benzofuran-3(2H)-one] | – |

| SMILES | IC50 (PI3K-alpha; read-out: PI3Kα Avg. IC50) [nM] | IC50 (PI3K-gamma) [nM] | IC50 (human TOR) [nM] | IC50 (PI3K-alpha; PI3Kα Avg. IC50) [nM] |
| --- | --- | --- | --- | --- |
| O=C1/C(=C/c2c(-c3ccc(Cl)cc3)[nH]c3ccccc23)Oc2cc(O)cc(O)c21 [Example 44, (2Z)-2-{[2-(4-chlorophenyl)-1H-indol-3-yl]methylene}-4,6-dihydroxy-1-benzofuran-3(2H)-one] | – | 1460 | 190 | 542 |
| O=C1/C(=C/c2c(-c3ccc4ccccc4c3)[nH]c3ccccc23)Oc2cc(O)cc(O)c21 [Example 45, (2Z)-4,6-dihydroxy-2-{[2-(2-naphthyl)-1H-indol-3-yl]methylene}-1-benzofuran-3(2H)-one] | – | 1820 | 280 | 799 |
| O=C1/C(=C/c2c[nH]c3ccc(Cl)cc23)Oc2cc(O)cc(O)c21 [Example 60, (2Z)-2-[(5-chloro-1H-indol-3-yl)methylene]-4,6-dihydroxy-1-benzofuran-3(2H)-one] | – | 3630 | 11000 | 492 |
